Measured values: patent publication US8703961B2, “Thiazole derivatives for the treatment of diseases such as cancer” (Merck Patent GmbH, priority 2009, dated 2014)

Columns and labels:
Assay in all cases: filter binding kinase assay
Assay type in all cases: biochemical
Conditions in all cases: derived from % inhibition at 1 μM
PRKACA = molecular target: T1, PRKACA (Homo sapiens, UniProt P17612)
T1 construct: purchased
In short: (§1)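 Compound was pre-incubated with enzyme and substrate for 5 minutes at room temperature, then the reaction was started with ATP (added solution at 5, 20 or 50 […] depending on kinase). Orthophosphoric acid stopped it, and phosphorylated substrate captured on P81 filters was quantified by scintillation counting.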

SYK = molecular target: T2, SYK (Homo sapiens, UniProt P43405)
T2 construct: purchased
In short: as §1

SRPK1 = molecular target: T3, SRPK1 (Homo sapiens, UniProt Q96SB4)
T3 construct: purchased
T3 sequence (Q96SB4 whole entry, species assumed): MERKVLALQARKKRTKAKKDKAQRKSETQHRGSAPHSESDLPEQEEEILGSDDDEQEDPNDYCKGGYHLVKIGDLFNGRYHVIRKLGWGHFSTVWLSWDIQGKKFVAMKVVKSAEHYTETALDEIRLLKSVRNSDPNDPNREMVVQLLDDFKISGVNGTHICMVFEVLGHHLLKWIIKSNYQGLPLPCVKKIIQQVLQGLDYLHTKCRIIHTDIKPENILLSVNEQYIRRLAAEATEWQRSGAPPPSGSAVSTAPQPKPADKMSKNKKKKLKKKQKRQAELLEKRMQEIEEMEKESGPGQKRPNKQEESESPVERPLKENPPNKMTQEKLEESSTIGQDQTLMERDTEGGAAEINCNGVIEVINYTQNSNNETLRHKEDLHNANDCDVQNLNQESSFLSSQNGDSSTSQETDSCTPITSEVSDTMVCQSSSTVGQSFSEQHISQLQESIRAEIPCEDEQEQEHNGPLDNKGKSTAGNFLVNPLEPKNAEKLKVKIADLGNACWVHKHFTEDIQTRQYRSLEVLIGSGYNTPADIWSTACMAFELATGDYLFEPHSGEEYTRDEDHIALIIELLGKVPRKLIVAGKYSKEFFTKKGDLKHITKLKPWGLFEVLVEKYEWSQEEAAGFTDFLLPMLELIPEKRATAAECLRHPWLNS
In short: as §1

MAPK10 = molecular target: T4, MAPK10 (Homo sapiens, UniProt P53779)
T4 construct: purchased
T4 sequence (P53779 whole entry, species assumed): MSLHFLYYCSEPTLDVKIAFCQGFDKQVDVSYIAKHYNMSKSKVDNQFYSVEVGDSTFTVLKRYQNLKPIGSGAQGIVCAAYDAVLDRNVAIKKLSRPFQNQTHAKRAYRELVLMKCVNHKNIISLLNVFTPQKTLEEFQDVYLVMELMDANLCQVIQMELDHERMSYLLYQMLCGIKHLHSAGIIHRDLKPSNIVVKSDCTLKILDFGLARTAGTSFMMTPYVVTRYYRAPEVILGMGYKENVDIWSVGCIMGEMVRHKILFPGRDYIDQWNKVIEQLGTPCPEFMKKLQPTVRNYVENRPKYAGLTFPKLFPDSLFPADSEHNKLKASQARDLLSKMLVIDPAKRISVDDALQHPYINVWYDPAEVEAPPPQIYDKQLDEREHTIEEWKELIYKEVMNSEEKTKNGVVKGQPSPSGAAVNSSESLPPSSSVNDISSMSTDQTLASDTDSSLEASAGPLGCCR
In short: as §1

EPHB3 = molecular target: T5, EPHB3 (Homo sapiens, UniProt P54753)
T5 construct: purchased
T5 sequence (P54753 34-998): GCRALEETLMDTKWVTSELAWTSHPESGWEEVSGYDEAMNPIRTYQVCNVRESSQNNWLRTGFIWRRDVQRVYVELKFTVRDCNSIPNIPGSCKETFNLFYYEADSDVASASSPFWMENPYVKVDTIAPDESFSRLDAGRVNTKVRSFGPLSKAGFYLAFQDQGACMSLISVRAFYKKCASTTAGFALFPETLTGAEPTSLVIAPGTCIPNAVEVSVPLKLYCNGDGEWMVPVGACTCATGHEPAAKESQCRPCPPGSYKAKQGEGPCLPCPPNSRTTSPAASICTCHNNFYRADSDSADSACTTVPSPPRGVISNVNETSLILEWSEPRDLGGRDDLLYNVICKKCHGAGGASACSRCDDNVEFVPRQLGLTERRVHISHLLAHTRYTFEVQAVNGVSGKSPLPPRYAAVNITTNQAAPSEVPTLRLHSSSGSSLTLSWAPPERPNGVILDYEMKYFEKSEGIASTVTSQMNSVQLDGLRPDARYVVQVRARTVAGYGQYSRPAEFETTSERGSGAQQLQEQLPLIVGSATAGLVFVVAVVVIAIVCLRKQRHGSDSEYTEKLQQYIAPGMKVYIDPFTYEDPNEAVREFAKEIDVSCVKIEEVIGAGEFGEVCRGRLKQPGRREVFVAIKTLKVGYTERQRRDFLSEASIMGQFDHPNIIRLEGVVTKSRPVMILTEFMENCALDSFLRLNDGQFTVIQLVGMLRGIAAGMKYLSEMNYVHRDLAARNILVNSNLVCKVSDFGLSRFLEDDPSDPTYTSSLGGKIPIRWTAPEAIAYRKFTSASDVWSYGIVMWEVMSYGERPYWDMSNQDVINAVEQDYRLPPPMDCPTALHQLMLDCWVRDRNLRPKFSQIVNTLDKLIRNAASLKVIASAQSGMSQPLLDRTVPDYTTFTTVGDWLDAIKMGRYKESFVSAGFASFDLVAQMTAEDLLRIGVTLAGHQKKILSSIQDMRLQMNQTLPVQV
In short: as §1

DYRK1A = molecular target: T6, DYRK1A (Homo sapiens, UniProt Q13627)
T6 construct: purchased
In short: as §1

BRSK2 = molecular target: T7, BRSK2 (Homo sapiens, UniProt Q8IWQ3)
T7 construct: purchased
T7 sequence (Q8IWQ3 1-736): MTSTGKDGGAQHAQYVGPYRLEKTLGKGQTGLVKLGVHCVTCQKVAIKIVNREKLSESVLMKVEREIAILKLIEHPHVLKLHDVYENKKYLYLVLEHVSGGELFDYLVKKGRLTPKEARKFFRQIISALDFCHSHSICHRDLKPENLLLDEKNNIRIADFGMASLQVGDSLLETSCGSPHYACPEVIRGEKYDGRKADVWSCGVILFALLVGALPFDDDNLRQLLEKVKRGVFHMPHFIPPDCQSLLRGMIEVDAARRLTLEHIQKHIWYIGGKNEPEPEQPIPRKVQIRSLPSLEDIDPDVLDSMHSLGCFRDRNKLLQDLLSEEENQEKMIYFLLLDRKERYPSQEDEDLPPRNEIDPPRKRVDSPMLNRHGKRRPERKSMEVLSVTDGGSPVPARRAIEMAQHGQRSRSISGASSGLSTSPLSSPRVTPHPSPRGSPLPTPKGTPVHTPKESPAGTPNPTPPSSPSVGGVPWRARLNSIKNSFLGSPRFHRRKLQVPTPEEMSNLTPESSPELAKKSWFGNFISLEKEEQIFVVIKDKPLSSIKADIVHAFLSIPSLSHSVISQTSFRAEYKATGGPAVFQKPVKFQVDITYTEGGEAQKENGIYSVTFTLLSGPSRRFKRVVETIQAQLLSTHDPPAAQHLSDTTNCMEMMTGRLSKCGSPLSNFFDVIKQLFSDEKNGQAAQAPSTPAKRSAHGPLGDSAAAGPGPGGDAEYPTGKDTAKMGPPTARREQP
In short: as §1

DYRK2 = molecular target: T8, DYRK2 (Homo sapiens, UniProt Q92630)
T8 construct: purchased
T8 sequence (Q92630 1-601): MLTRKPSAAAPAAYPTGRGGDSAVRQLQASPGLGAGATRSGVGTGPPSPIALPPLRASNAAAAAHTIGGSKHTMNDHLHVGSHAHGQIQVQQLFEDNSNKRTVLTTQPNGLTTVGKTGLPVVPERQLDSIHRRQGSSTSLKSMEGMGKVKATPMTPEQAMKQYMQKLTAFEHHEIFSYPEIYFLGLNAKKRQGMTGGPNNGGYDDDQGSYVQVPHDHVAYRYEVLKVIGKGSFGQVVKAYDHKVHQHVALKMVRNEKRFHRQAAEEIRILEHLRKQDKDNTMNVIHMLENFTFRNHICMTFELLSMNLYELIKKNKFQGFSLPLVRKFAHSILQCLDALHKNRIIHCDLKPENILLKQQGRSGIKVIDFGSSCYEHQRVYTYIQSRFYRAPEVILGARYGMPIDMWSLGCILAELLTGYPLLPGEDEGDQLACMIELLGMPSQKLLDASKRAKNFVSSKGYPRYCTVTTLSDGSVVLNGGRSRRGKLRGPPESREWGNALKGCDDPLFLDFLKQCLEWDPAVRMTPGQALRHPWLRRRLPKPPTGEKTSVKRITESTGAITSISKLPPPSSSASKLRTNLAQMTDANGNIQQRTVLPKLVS
In short: as §1

INSR = molecular target: T9, INSR (Homo sapiens, UniProt P06213)
T9 construct: purchased
T9 sequence (P06213 28-1382, species assumed): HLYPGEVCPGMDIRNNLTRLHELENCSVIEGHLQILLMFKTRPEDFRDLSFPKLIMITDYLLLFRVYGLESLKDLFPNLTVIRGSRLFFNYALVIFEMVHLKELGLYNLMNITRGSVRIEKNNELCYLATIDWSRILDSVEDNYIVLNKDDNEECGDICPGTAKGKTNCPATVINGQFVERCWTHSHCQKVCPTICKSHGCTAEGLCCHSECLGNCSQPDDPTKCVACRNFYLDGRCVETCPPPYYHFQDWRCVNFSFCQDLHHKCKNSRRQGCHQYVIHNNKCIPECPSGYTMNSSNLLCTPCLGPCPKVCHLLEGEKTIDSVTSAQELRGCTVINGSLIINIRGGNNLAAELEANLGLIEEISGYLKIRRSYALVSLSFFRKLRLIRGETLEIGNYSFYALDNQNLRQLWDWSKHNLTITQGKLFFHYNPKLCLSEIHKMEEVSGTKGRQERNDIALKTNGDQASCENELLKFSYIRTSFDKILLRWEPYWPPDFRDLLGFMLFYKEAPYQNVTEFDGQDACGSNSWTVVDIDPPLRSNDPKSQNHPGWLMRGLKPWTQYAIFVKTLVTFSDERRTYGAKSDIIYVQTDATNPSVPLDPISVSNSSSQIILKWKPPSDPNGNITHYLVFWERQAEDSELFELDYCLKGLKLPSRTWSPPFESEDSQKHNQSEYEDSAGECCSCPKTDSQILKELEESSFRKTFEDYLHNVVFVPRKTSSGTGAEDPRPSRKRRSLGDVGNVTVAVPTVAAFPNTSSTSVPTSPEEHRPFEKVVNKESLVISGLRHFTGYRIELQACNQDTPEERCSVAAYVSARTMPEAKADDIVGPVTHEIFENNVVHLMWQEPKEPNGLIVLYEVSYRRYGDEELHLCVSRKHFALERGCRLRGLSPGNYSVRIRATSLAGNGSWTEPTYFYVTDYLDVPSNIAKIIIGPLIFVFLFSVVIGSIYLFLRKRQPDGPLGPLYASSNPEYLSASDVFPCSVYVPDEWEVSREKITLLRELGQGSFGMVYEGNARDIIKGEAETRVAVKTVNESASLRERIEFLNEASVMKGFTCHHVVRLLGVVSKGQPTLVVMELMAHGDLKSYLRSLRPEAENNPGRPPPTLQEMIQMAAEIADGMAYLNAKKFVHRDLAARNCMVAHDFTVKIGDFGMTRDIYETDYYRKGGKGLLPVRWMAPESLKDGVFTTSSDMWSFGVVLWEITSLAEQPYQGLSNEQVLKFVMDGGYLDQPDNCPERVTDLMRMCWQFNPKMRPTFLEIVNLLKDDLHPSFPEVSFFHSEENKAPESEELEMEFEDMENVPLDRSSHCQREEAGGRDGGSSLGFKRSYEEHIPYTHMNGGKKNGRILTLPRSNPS
In short: as §1

c1ccc(Cc2c[nH]c3ncsc23)cc1 [Compound A7, 6-benzyl-4H-pyrrolo[2,3-d]thiazole]
IC50 (PRKACA): > 1000 nM
IC50 (SYK): > 1000 nM
IC50 (SRPK1): 10000 to 100000 nM
IC50 (MAPK10): > 1000 nM
IC50 (EPHB3): > 1000 nM
IC50 (DYRK1A): > 1000 nM
IC50 (BRSK2): > 1000 nM
IC50 (DYRK2): > 1000 nM
IC50 (INSR): > 1000 nM

Nc1ncsc1C#Cc1cnc2[nH]ccc2c1 [Compound A22, 5-(1H-pyrrolo[2,3-b]pyridin-5-ylethynyl)thiazol-4-ylamine]
IC50 (PRKACA): 1000 to 10000 nM
IC50 (SYK): 10000 to 100000 nM
IC50 (SRPK1): > 1000 nM
IC50 (MAPK10): > 1000 nM
IC50 (EPHB3): 10000 to 100000 nM
IC50 (DYRK1A): > 1000 nM
IC50 (BRSK2): > 1000 nM
IC50 (DYRK2): > 1000 nM
IC50 (INSR): 10000 to 100000 nM

Nc1ncsc1C#Cc1cccc(O)c1 [Compound A27, 3-(4-aminothiazol-5-ylethynyl)phenol]
IC50 (PRKACA): 1000 to 10000 nM
IC50 (SYK): 10000 to 100000 nM
IC50 (SRPK1): 1000 to 10000 nM
IC50 (MAPK10): 1000 to 10000 nM
IC50 (EPHB3): 1000 to 10000 nM
IC50 (DYRK1A): 10000 to 100000 nM
IC50 (BRSK2): 10000 to 100000 nM
IC50 (DYRK2): 1000 to 10000 nM
IC50 (INSR): 10000 to 100000 nM

CC(C)(C)OC(=O)Nc1ncsc1C#CCN1C(=O)c2ccccc2C1=O [Compound A26, tert-butyl{5-[3-(1,3-dioxo-1,3-dihydroisoindol-2-yl)prop-1-ynyl]-thiazol-4-yl}carbamate]
IC50 (PRKACA): 10000 to 100000 nM
IC50 (SYK): > 1000 nM
IC50 (SRPK1): > 1000 nM
IC50 (MAPK10): > 1000 nM
IC50 (EPHB3): 1000 to 10000 nM
IC50 (DYRK1A): 10000 to 100000 nM
IC50 (BRSK2): > 1000 nM
IC50 (DYRK2): > 1000 nM
IC50 (INSR): 1000 to 10000 nM

CC(C)(C)OC(=O)Nc1nc(-c2ccncc2)sc1C#CCN1CCOCC1 [Compound A25, tert-butyl[5-(3-morpholin-4-ylprop-1-ynyl)-2-pyridin-4-ylthiazol-4-yl]-carbamate]
IC50 (PRKACA): > 1000 nM
IC50 (SYK): > 1000 nM
IC50 (SRPK1): > 1000 nM
IC50 (MAPK10): > 1000 nM
IC50 (EPHB3): > 1000 nM
IC50 (DYRK1A): > 1000 nM
IC50 (BRSK2): > 1000 nM
IC50 (DYRK2): > 1000 nM
IC50 (INSR): > 1000 nM
